Measured values from patent publication US20240398759A1, “INHIBITING SEROTONIN TRANSPORTER PROTEIN (5-HTT)” (priority 2022, published 2024).
Read-outs that look alike come from different tables or passages of the source.

Legend:
SERT = SERT (Homo sapiens (Human), UniProt P31645); test: SERT inhibition assay (Neurotransmitter Transporter fluorescence uptake, stable 5HTT HEK293 cells); type: cell-based; conditions: n=6 ± SD
Procedure: SERT inhibition was measured using a Neruotransmitter Transportation Fluorescence assay. Briefly, stable 5HTT HEK293 cells were prepared in a 384 microwell plate (20,000 cells per 20 μL well). Compounds were prepared by in assay buffer (20 mM HEPES in HBSS, 0.1% BSA) at a top concentration of 1 μM. 10 doses of test compound (3-fold serial dilution) were added to the plated cells and incubated for 30 minutes at 37° C. 25 μL of dye solution (Molecular Devices Neurotransmitter Transporter Uptake Assay Kit) was added per well and incubated for 30 minutes at 37° C.

PDE4A1A = PDE4A1A (Homo sapiens (Human), UniProt P27815); test: PDE4 inhibition assay (fluorescence polarization), PDE4A1A; type: biochemical
Procedure: (§1) 100 μM dilutions of the test compounds were prepared in assay buffer (10% DMSO concentration) and 5 μl of the dilution was added to a 50 μl reaction so that the final concentration of DMSO is 1% in all of reactions. The enzymatic reactions were conducted at room temperature for 60 minutes in a 50 μl mixture containing PDE assay buffer, 100 nM FAM-cAMP, a PDE enzyme (Table 2.3.1) and the test compound (Section 2.2). After the enzymatic reaction, 100 μl of a binding solution (1:100 dilution of the binding agent with the binding agent diluent) was added to each reaction and the reaction was performed at room temperature for 60 minutes. Fluorescence intensity was measured at an excitation of 485 nm and an emission of 528 nm using a Tecan Infinite M1000 microplate reader.
(§2) • 1) Dilute 20 μM FAM-Cyclic-3′, 5′-AMP stock 100-fold with PDE buffer to make a 200 nM solution. • 2) Add 25 μl of FAM-Cyclic-3′,5′-AMP (200 nM) to each well designated “Positive Control”, “Test Inhibitor”, and “Substrate Control”. • 3) Add 20 μl of PDE assay buffer to each well designated “Substrate Control” and 45 μl of PDE assay buffer to each well designated “Blank”. • 4) Add 5 μl of inhibitor solution to each well designated “Test Inhibitor”. For the wells labeled “Positive Control”, “Substrate Control” and “Blank”, add 5 μl of the same solution without inhibitor (inhibitor buffer). • 5) Thaw PDE on ice. Upon first thaw, briefly spin tube containing enzyme to recover the full contents of the tube. • 6) Dilute PDE4 in PDE buffer to 7.5 pg/μl (0.15 ng/reaction)*. Initiate reaction by adding 20 µl of PDE4 (7.5 pg/μl) to the wells designated “Positive Control” and “Test Inhibitor.” • 7) Incubate at room temperature for 1 hour.
(§3) • 1) Mix binding agent thoroughly and dilute binding agent 1:100 with binding agent diluent. • 2) Add 100 μl diluted binding agent to each microwell. Incubate at room temperature for 1 hour with slow shaking. • 3) Read the fluorescent polarization of the sample in a microtiter-plate reader equipped for the measurement of fluorescence polarization, capable of excitation at wavelengths ranging from 485±5 nm and detection of emitted light ranging from 528±10 nm. Blank value is subtracted from all other values. • 4) Data Analysis: PDE activity assays were performed in duplicate at each concentration. Fluorescence intensity is converted to fluorescence polarization using the Tecan Magellan6 software. The fluorescence polarization data were analyzed using the computer software, Graphpad Prism. The fluorescence polarization (FPt) in absence of the compound in each data set was defined as 100% activity. In the absence of PDE and the compound, the value of fluorescent polarization (FPb) in each data set was defined as 0% activity. The percent activity in the presence of the compound was calculated according to the following equation: % activity=(FP−FPb)/(FPt−FPb)×100%, where FP=the fluorescence polarization in the presence of the compound. The values of % activity versus a series of compound concentrations were then plotted using non-linear regression analysis of sigmoidal dose-response curve generated with the equation Y=B+(T−B)/1+10^(LogEC50−X)×Hill Slope), where Y=percent activity, B=minimum percent activity, T=maximum percent activity, X=logarithm of compound and Hill Slope=slope factor or Hill coefficient. The IC50 value was determined by the concentration causing a half-maximal percent activity.

PDE4B2 = PDE4B2 (Homo sapiens (Human), UniProt Q07343); test: PDE4 inhibition assay (fluorescence polarization), PDE4B2; type: biochemical
Procedure: as §1, §2, §3

PDE4C1 = PDE4C1 (Homo sapiens (Human), UniProt Q08493); test: PDE4 inhibition assay (fluorescence polarization), PDE4C1; type: biochemical
Procedure: as §1, §2, §3

PDE4D2 = PDE4D2 (Homo sapiens (Human), UniProt Q08499); test: PDE4 inhibition assay (fluorescence polarization), PDE4D2; type: biochemical
Procedure: as §1, §2, §3

mouse behavior = test: SmartCube system behavioral signature in mice; type: in vivo
Description: To confirm that compound 018 and Compound 019 has antidepressant effects, the SmartCube® system (Psychogenics, Inc., Paramus, NJ) was used. This system uses features derived from mouse behavioral data to classify compounds for their ability to treat neuro-psychiatric symptoms by comparing the features to a proprietary reference database of behavioral feature sets that are linked to classes of marketed drugs known to treat neuro-psychiatric symptoms. Thus the system can be used as a model to identify the psychiatric effect of a compound by comparing the effects of the compounds against drugs with known validated effects. By comparing the responses of animals to known drugs, the test drug can be categorized according to its function; for example, hallucinogen, anxiogenic, analgesic, cognitive enhancer, psychostimulant, mood stabilizer, high dose anti-psychotic, anti-psychotic, sedative/hypnotic, anxiolytic, high dose antidepressant, antidepressant.
Once all features are extracted from the raw data through an automated pipeline, proprietary bioinformatics algorithms are used to decorrelate groups of features and find the combination of values that best separate different groups of interest. For each compound, at each dose, they system provides a probability that the drug is active and breaks down such putative activity into the different classes of interest.
Mice were tested in the SmartCube® system where they were exposed to a sequence of challenges during the 45-minute test period. The cubes were cleaned between each run.
For class and subclass analysis, a reference data set has been built from hundreds of drug doses in multiple drug classes plus a control group. Each reference drug was tested at multiple doses appropriate for that drug in mice. The best performing classifiers were chosen from our evaluation tests and two separate types of classifiers were built that make independent predictions at drug class and subclass levels. The Class consists of drugs that are currently in the market or have been clinically validated for that specific indication. The sub-class consists of both marketed drugs and other compounds that have been mechanistically validated and is a larger set than the Class.
Data was processed using proprietary computer vision and data mining algorithms and the results were compared to signatures of the reference compounds in our database. Multiple analyses of the data was performed to quantitatively produce independent predictions of drug class, and drug subclass. The behavioral signatures of the test drug were evaluated using these classifiers to predict potential therapeutic utility.

[1] = human, 1 µM
Procedure: (§4) A 2.5 uL aliquot of 100 μM test compound was incubated with 247.5 uL of cryopreserved hepatocytes suspended in serum-free incubation medium at 1 million viable cells/mL. The mixture was incubated at 37° C. and shaken at 500 rpm for the designated time points (0.5, 5, 10, 15, 30, 60, 90, or 120 min). At each time point, 25 uL aliquot of incubation mixture was transferred to 125 uL of cold acetonitrile containing internal standard, followed by centrifugation for 30 min at 3,220 g. 100 uL of supernatant was mixed with 100 uL of distilled water for analysis by LC-MS/MS. Peak area ratios were determined from extracted ion chromatograms and percent recovery was calculated.

[2] = beagle, dog, in vivo
Description: (§5) HPLC Instrument: Shimsadzu (DGU-20A5R, Serial No: L20705621435 IX; LC-30AD Serial No: L20555611905 AE and L20555611816 AE; SIL-L30AC, Serial No: L20565605499 AE; Rack Changer II Serial No. L20585601125 SS; CTO20A: Serial No. L20205620413 CD; CBM-20A: Serial No. L20235636200 CD) • MS: AB API 5500 LC/MS/MS instrument (Serial No. EF221221812) • Column: Phenomenex Synergi 2.5 μm Polar-RP 100A. (50×3 mm) • Mobile Phase: (A) 5% Acetonitrile in Water (0.1% Formic acid); (B) 95% Acetonitrile in Water (0.1% Formic acid) • Samples: 50 μL of plasma sample+5 μL of blank solution+200 μL of acetonitrile for PPE (protein precipitation extraction).
(§6) The desired serial concentrations of working solutions were achieved by diluting stock solution of analyte with 50% acetonitrile in water solution. 5 μL of working solutions (5, 10, 20, 50, 100, 500, 1000, 5000, 10000 ng/mL) were added to 50 μL of the blank Beagle Dog plasma to achieve calibration standards of 0.5˜1000 ng/mL (0.5, 1, 2, 5, 10, 50, 100, 500, 1000 ng/mL) in a total volume of 55 μL. Five quality control samples at 1 ng/mL, 2 ng/mL, 5 ng/mL, 50 ng/mL and 800 ng/mL for plasma were prepared independently of those used for the calibration curves. These QC samples were prepared on the day of analysis in the same way as calibration standards.
(§7) 55 μL standards, 55 μL QC samples and 55 μL unknown samples 50 μL plasma with 5 μL blank solution) were added to 200 μL of acetonitrile containing IS mixture for precipitating protein respectively. Then the samples were vortexed for 30 s. After centrifugation at 4 degree Celsius, 3900 rpm for 15 min, the supernatant was diluted 3 times with water.

in vivo = conditions: beagle, dog
Description: as §5, §6, §7

in vitro = conditions: human hepatocytes
Procedure: as §4

[3] = Hepatocyte metabolism (stability in cryopreserved hepatocytes); conditions: human hepatocytes
Procedure: as §4

5-HT transporter (SERT) = 5-HT transporter (SERT) (Homo sapiens (Human), UniProt P31645); conditions: cited from earlier work
[4] = Pharmacokinetic profile in dogs (IV and PO); conditions: dog, mean n=3
Description: as §5, §6, §7

Chain of PDE4C1 (Q08493 whole entry): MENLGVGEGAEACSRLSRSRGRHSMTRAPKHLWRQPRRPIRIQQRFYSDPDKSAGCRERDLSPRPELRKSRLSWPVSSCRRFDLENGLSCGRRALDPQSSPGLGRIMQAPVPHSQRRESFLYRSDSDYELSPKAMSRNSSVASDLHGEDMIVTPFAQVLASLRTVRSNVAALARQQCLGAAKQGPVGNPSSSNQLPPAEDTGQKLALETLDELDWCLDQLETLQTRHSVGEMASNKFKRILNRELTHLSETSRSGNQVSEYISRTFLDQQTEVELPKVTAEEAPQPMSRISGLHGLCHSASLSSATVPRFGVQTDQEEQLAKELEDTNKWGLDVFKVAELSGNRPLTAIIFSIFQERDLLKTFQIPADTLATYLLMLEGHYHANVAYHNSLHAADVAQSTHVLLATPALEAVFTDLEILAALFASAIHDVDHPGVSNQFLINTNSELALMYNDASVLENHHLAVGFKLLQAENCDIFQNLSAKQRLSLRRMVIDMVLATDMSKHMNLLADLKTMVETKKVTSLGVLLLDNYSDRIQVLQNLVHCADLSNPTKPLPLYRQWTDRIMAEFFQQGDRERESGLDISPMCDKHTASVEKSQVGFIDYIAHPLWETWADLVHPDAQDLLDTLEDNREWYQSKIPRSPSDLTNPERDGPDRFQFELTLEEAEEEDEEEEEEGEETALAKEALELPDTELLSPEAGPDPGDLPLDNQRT
Chain of PDE4A1A (P27815 other isoform, or with tags, fused parts or gaps): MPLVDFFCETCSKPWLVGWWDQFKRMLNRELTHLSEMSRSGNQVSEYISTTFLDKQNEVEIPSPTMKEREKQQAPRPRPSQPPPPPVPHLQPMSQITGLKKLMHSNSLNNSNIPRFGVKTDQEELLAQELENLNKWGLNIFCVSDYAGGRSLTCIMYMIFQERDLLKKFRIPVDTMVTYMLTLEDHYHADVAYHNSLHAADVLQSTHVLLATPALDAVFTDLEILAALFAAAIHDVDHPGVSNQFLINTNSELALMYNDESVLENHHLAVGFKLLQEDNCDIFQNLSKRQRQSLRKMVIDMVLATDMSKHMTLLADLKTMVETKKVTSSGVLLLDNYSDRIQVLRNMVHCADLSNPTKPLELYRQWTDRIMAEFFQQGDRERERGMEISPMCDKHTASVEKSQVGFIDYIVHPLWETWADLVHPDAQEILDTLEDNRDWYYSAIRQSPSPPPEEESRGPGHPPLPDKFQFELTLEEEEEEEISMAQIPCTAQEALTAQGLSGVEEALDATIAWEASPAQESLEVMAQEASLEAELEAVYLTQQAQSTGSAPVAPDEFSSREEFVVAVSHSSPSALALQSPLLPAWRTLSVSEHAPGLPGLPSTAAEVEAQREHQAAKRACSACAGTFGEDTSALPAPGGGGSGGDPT
Chain of PDE4D2 (Q08499 303-809): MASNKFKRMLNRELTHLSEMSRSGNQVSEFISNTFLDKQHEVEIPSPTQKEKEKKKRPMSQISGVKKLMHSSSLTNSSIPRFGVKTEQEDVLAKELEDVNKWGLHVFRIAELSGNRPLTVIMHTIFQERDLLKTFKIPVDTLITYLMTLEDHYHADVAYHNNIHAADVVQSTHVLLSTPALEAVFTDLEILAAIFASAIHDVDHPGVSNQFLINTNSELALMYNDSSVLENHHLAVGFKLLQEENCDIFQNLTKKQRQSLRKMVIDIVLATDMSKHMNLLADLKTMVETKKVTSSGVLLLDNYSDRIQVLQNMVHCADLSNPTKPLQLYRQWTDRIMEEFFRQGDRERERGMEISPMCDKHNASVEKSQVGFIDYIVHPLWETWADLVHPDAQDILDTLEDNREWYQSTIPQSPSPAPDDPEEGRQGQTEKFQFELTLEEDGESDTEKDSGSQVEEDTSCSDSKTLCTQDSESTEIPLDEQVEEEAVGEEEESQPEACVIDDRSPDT
Chain of PDE4B2 (Q07343 other isoform, or with tags, fused parts or gaps): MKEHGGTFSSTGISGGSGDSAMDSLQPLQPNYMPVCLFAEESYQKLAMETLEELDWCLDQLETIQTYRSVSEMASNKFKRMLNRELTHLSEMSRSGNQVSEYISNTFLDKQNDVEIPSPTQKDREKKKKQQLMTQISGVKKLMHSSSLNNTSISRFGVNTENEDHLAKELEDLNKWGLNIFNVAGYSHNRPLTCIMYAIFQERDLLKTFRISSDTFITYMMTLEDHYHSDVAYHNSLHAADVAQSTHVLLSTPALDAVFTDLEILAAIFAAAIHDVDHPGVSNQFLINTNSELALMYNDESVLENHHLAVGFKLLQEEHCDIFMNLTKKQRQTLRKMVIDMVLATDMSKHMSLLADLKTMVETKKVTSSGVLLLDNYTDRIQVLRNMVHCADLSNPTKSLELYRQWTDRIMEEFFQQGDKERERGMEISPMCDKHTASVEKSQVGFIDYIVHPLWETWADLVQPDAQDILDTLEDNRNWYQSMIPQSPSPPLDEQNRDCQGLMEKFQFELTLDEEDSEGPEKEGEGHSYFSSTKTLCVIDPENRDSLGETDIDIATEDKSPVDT

COc1ccc([C@@]23CC[C@@H](O)C[C@@H]2N(C)CC3)cc1OC [Compound 018, (3aS,6R,7aS)-3a-(3,4-dimethoxyphenyl)-1-methyloctahydro-1H-indol-6-ol]
IC50 (SERT): 21.9 ± 8 nM
PDE4A1A % INH @ 10 μM (PDE4A1A; 10 μM): 5%
inhibition at 10 µM (PDE4A1A; 10 μM, read-out: PDE4A1A % INH @ 10 μM): ≤ 5%
PDE4B2 % INH @ 10 μM (PDE4B2): 3%
inhibition at 10 µM (PDE4B2; read-out: PDE4B2 % INH @ 10 μM): ≤ 5%
PDE4C1 % INH @ 10 μM (PDE4C1): 1%
PDE4C1 % INH @ 10 μM (PDE4C1; listed as Compound 18): no more than 5%
PDE4D2 %INH @ 10 μM (PDE4D2; 10 μM): 4%
inhibition at 10 µM (PDE4D2; 10 μM, read-out: PDE4D2 %INH @ 10 μM): ≤ 5%
behavioral activity (mouse behavior; mice, 3 mg/kg): < 40%
behavioral activity (in words) (mouse behavior; mice, 3 mg/kg): behaviorally inactive
signature in class and subclass (mouse behavior; mice, 10, 30 and 100 mg/kg): robust antidepressant-like signature with a small portion showing psychostimulant-like signature
% QH [1]: 13%
CLHB [1]: 3 mL/min/kg
AUC_% Extrap_obs ([2]; iv, 2 mg/kg): 0.26%
AUClast/D ([2]; iv, 2 mg/kg): 355
Cl_obs ([2]; iv, 2 mg/kg): 47.6 mL/min/kg
AUC_% Extrap_obs ([2]; po, 10 mg/kg): 5.10%
AUClast/D ([2]; po, 10 mg/kg): 14.4
F ([2]; po, 10 mg/kg): 4.3%
AUC(0-inf) (in vivo; iv, 2 mg/kg): 712 ng·h/mL
AUC(0-t) (in vivo; iv, 2 mg/kg): 710 ng·h/mL
C0 (in vivo; iv, 2 mg/kg): 6250 ng/mL
MRT inf (in vivo; iv, 2 mg/kg): 0.71 h
half-life (in vivo; iv, 2 mg/kg): 1.78 h
AUC(0-inf) (in vivo; po, 10 mg/kg): 151 ng·h/mL
AUC(0-t) (in vivo; po, 10 mg/kg): 144 ng·h/mL
Cmax (in vivo; po, 10 mg/kg): 84.4 ng/mL
MRT inf (in vivo; po, 10 mg/kg): 3.95 h
Tmax (in vivo; po, 10 mg/kg): 0.28 h
half-life (in vivo; po, 10 mg/kg): 5.95 h
CLint scaled at 1 µM (in vitro): 3 mL/min/kg
half-life at 1 µM (in vitro): > 2 h
hepatocyte CLint at 1 µM (in vitro): 1 µL/min/1e6 cells
Extraction Ratio [3]: 0.13
t1/2 [3]: >2 h

COc1ccc(C23C=CC(O)CC2N(C)CC3)cc1OC [Compound 020, (S, R, S) Mesembrenol]
PDE4A1A % INH @ 10 μM (PDE4A1A; 10 μM): 68%
PDE4B2 % INH @ 10 μM (PDE4B2): 62%
PDE4C1 % INH @ 10 μM (PDE4C1): 32%
PDE4D2 %INH @ 10 μM (PDE4D2; 10 μM): 72%

COc1ccc(C23C=CC(O)CC2N(C)CC3)cc1OC [Compound 021, (R, R, S) Mesembrenol]
PDE4A1A % INH @ 10 μM (PDE4A1A; 10 μM): 22%
PDE4B2 % INH @ 10 μM (PDE4B2): 12%
PDE4C1 % INH @ 10 μM (PDE4C1): 7%
PDE4D2 %INH @ 10 μM (PDE4D2; 10 μM): 15%

COc1ccc(C23C=CC(O)CC2N(C)CC3)cc1OC [Compound 023, (R, S, R) Mesembrenol]
PDE4A1A % INH @ 10 μM (PDE4A1A; 10 μM): 15%
PDE4B2 % INH @ 10 μM (PDE4B2): 16%
PDE4C1 % INH @ 10 μM (PDE4C1): 9%
PDE4D2 %INH @ 10 μM (PDE4D2; 10 μM): 21%

COc1ccc(C23C=CC(O)CC2N(C)CC3)cc1OC [Compound 024, (S, S, R) Mesembrenol]
PDE4A1A % INH @ 10 μM (PDE4A1A; 10 μM): 45%
PDE4B2 % INH @ 10 μM (PDE4B2): 55%
PDE4C1 % INH @ 10 μM (PDE4C1): 18%
PDE4D2 %INH @ 10 μM (PDE4D2; 10 μM): 53%

COc1ccc(C23C=CC(O)CC2N(C)CC3)cc1OC (stereo not shown) [Mesembrenol]
Ki (5-HT transporter (SERT); binding to the 5-HT transporter, isolated alkaloids): 62 nM
nH (5-HT transporter (SERT); concentration response curves, 5-HT transporter): 1.1

(+) Mesembrine [Compound 002]
PDE4A1A % INH @ 10 μM (PDE4A1A; 10 μM): 56%
PDE4C1 % INH @ 10 μM (PDE4C1): 26%
PDE4D2 %INH @ 10 μM (PDE4D2; 10 μM): 54%

(−) Mesembrine [Compound 001]
IC50 (PDE4A1A): 4300 nM
IC50 (PDE4C1): 15000 nM
IC50 (PDE4D2): 2700 nM
AUCInf ([4]; IV 2 mg/kg): 809 ng·h/mL
AUC_% Extrap_obs ([4]; IV 2 mg/kg): 0.53%
AUClast ([4]; IV 2 mg/kg): 805 ng·h/mL
AUClast/D ([4]; IV 2 mg/kg): 402
C0 ([4]; IV 2 mg/kg): 1226 ng/mL
Cl_obs ([4]; IV 2 mg/kg): 44.07 mL/min/kg
MRTInf_obs ([4]; IV 2 mg/kg): 1.41 h
T1/2 ([4]; IV 2 mg/kg): 1.65 h
AUCInf ([4]; PO 10 mg/kg): 3113.0 ng·h/mL
AUC_% Extrap_obs ([4]; PO 10 mg/kg): 0.25%
AUClast ([4]; PO 10 mg/kg): 3106.9 ng·h/mL
AUClast/D ([4]; PO 10 mg/kg): 310.7
Cmax ([4]; PO 10 mg/kg): 1878.0 ng/mL
F ([4]; PO 10 mg/kg): 76.9%
MRTInf_obs ([4]; PO 10 mg/kg): 1.81 h
T1/2 ([4]; PO 10 mg/kg): 2.99 h
Tmax ([4]; PO 10 mg/kg): 0.28 h
% QH [3]: 86%
CLHB [3]: 18 mL/min/kg
Hepatocyte Clint [3]: 55 μL/min/10^6 cells
t1/2 [3]: 0.217 h
CLint ([3]; scaled): 131 mL/min/kg
